According to patent publication US7763728B2, “Tetrahydropyridothiophenes” (4SC AG, priority 2005, dated 2010):

How the values were obtained:
[1] = test system: RKO (RKOp27) human colon adenocarcinoma cells; test: Alamar Blue cell viability assay, anti-proliferative/cytotoxic activity on proliferating (uninduced) RKOp27 cells; assay type: cell-based; conditions: 72 hours incubation, absence of the inducer Ponasterone A, read-out: IC50 RKO p27 uninduced (proliferating)
Experimental: The anti-proliferative/cytotoxic activity of the compounds described herein, can be tested on subclones of RKO (RKOp27) human colon adenocarcinoma cells (Schmidt et al., Oncogene 19, 2423-2429; 2000) using the Alamar Blue cell viability assay (described in O'Brien et al. Eur J Biochem 267, 5421-5426, 2000). The compounds are dissolved as 20 mM solutions in dimethylsulfoxide (DMSO) and subsequently diluted in semi-logarithmic steps. DMSO dilutions are further diluted 1:100 into Dulbecco's modified Eagle's medium (DMEM) containing 10% fetal calf serum to a final concentration twice as much as the final concentration in the test. RKO subclones are seeded into 96 well flat bottom plates at a density of 5000 cells per well in a volume of 50 μl per well. 24 hours after seeding the 50 μl each of the compound dilutions in DMEM medium are added into each well of the 96 Well plate. Each compound dilution is tested as quadruplicates. Wells containing untreated control cells are filled with 50 μl DMEM medium containing 1% DMSO. The cells are then incubated with the substances for 72 hours at 37° C. in a humified atmosphere containing 5% carbon dioxide. To determine the viability of the cells, 10 μl of an Alamar Blue solution (Biosource) are added and the fluorescence is measured at an extinction of 544 nm and an emission of 590 nm. For the calculation of the cell viability the emission value from untreated cells is set as 100% viability and the emission rates of treated cells are set in relation to the values of untreated cells. Viabilities are expressed as % values.
The corresponding IC50 values of the compounds for anti-proliferative/cytotoxic activity are determined from the concentration-effect curves.
Representative IC50 values for anti-proliferation/cytotoxicity determined in the mentioned assay follow from the following table A, in which the numbers of the compounds correspond to the numbers of the examples.

[2] = test system: RKO colon adenocarcinoma cells (RKOp27) arrested by the expression of ectopic p27Kip1; test: Alamar Blue cell viability assay on RKOp27 cells arrested by p27Kip1 expression induced by Ponasterone A; assay type: cell-based; conditions: Homo sapiens, 72 hours incubation, 10 μM Ponasterone A, read-out: IC50 RKO p27 induced (arrested)
Experimental: To determine the cell cycle specific mode of action, subclones of RKO colon adenocarcinoma cells (RKOp27 or RKOp21 as described by Schmidt et al. in Oncogene 19, 2423-2429; 2000) are seeded into 96 well flat bottom plates at a density of 15000 cells per well in a volume of 50 μl per well in DMEM growth medium with 10% FCS containing 10 μM Ponasterone A. 24 hours after seeding the 50 μl each of the compound dilutions in DMEM medium are added into each well of the 96 Well plate. Each compound dilution is tested as quadruplicates. Wells containing untreated control cells are filled with 50 μl DMEM medium containing 1% DMSO. The cells are then incubated with the substances for 72 hours at 37° C. in a humidified atmosphere containing 5% carbon dioxide. To determine the viability of the cells, 10 μl of an Alamar Blue solution (Biosource) are added and the fluorescence was measured at an extinction of 544 nm and an emission of 590 nm. For the calculation of the cell viability the emission value from untreated cells is set as 100% viability and the emission rates of treated cells are set in relation to the values of untreated cells. Viabilities are expressed as % values. Viability is compared of proliferating cells grown in the absence of the inducer Ponasterone A, versus viability of cells arrested by the expression of ectopic p27Kip1 induced by Ponasterone A.

IC50 [2] [nM] | SMILES | IC50 [1] [nM]
≥ 40000 | COc1ccccc1CCC(=O)Nc1sc2c(c1C#N)CCN(C(=O)Cn1cnc(C)c1)C2 [Example 139, N-{3-Cyano-6-[2-(4-methyl-imidazol-1-yl)-ethanoyl]-4,5,6,7-tetrahydro-thieno[2,3-c]pyridin-2-yl}-3-(2-methoxy-phenyl)-propionamide] | ≤ 300
> 100000 | COc1ccccc1C(C)CC(=O)Nc1sc2c(c1C#N)CCN(C(=O)CCc1ccccn1)C2 (racemic) [Example 94, (RS)—N-[3-Cyano-6-(3-pyridin-2-yl-propanoyl)-4,5,6,7-tetrahydro-thieno[2,3-c]pyridin-2-yl]-3-(2-methoxy-phenyl)-butyramide] | 300 to 2000
≥ 10000 | COc1ccc(C)cc1CCC(=O)Nc1sc2c(c1C#N)CCN(C(=O)Cn1cc(C)nc1C)C2 [Example 149, N-{3-Cyano-6-[2-(2,4-dimethyl-imidazol-1-yl)-ethanoyl]-4,5,6,7-tetrahydro-thieno[2,3-c]pyridin-2-yl}-3-(2-methoxy-5-methyl-phenyl)-propionamide] | 300 to 2000
> 100000 | COc1ccccc1C(C)CC(=O)Nc1sc2c(c1C#N)CCN(C(=O)CCc1cccnc1)C2 (racemic) [Example 77, (RS)—N-[3-Cyano-6-(3-pyridin-3-yl-propanoyl)-4,5,6,7-tetrahydro-thieno[2,3-c]pyridin-2-yl]-3-(2-methoxy-phenyl)-butyramide] | 300 to 2000
> 100000 | CCCC(=O)N1CCc2c(sc(NC(=O)CC(C)c3ccccc3OCC)c2C#N)C1 (racemic) [Example 90, (RS)—N-(6-Butyryl-3-cyano-4,5,6,7-tetrahydro-thieno[2,3-c]pyridin-2-yl)-3-(2-ethoxy-phenyl)-butyramide] | ≤ 300
≥ 10000 | COc1ccccc1CCC(=O)Nc1sc2c(c1C#N)CCN(C(=O)Cn1cc(C)nc1C)C2 [Example 147, N-{3-Cyano-6-[2-(2,4-dimethyl-imidazol-1-yl)-ethanoyl]-4,5,6,7-tetrahydro-thieno[2,3-c]pyridin-2-yl}-3-(2-methoxy-phenyl)-propionamide] | ≤ 300
≥ 40000 | COc1ccc(C)cc1CCC(=O)Nc1sc2c(c1C#N)CCN(C(=O)Cn1ccnc1C)C2 [Example 132, N-{3-Cyano-6-[2-(2-methyl-imidazol-1-yl)-ethanoyl]-4,5,6,7-tetrahydro-thieno[2,3-c]pyridin-2-yl}-3-(2-methoxy-5-methyl-phenyl)-propionamide] | ≤ 300
≥ 10000 | CCOc1ccccc1C(C)CC(=O)Nc1sc2c(c1C#N)CCN(C(=O)CCn1ccnc1C)C2 (racemic) [Example 106, (RS)—N-{3-Cyano-6-[3-(2-methyl-imidazol-1-yl)-propanoyl]-4,5,6,7-tetrahydro-thieno[2,3-c]pyridin-2-yl}-3-(2-ethoxy-phenyl)-butyramide] | 300 to 2000
≥ 40000 | COc1ccccc1C(C)CC(=O)Nc1sc2c(c1C#N)CCN(C(=O)Cn1ccnc1C)C2 (racemic) [Example 127, (RS)—N-{3-Cyano-6-[2-(2-methyl-imidazol-1-yl)-ethanoyl]-4,5,6,7-tetrahydro-thieno[2,3-c]pyridin-2-yl}-3-(2-methoxy-phenyl)-butyramide] | ≤ 300
≥ 40000 | COc1ccc(C)cc1CCC(=O)Nc1sc2c(c1C#N)CCN(C(=O)Cn1cnc(C)c1)C2 [Example 141, N-{3-Cyano-6-[2-(4-methyl-imidazol-1-yl)-ethanoyl]-4,5,6,7-tetrahydro-thieno[2,3-c]pyridin-2-yl}-3-(2-methoxy-5-methyl-phenyl)-propionamide] | 300 to 2000
≥ 10000 | CCOc1ccccc1CCC(=O)Nc1sc2c(c1C#N)CCN(C(=O)CCn1ccnc1)C2 [Example 102, N-[3-Cyano-6-(3-Imidazol-1-yl-propanoyl)-4,5,6,7-tetrahydro-thieno[2,3-c]pyridin-2-yl]-3-(2-ethoxy-phenyl)-propionamide] | ≤ 300
≥ 10000 | COc1ccccc1CCC(=O)Nc1sc2c(c1C#N)CCN(C(=O)CCn1cnc(C)c1)C2 [Example 155, N-{3-Cyano-6-[3-(4-methyl-imidazol-1-yl)-propanoyl]-4,5,6,7-tetrahydro-thieno[2,3-c]pyridin-2-yl}-3-(2-methoxy-phenyl)-propionamide] | 300 to 2000

The remaining lines, values behind:

SMILES | IC50 [2] [nM] | IC50 [1] [nM]
CCOc1ccccc1CCC(=O)Nc1sc2c(c1C#N)CCN(C(=O)CCc1ccccn1)C2 [Example 17, N-[3-Cyano-6-(3-pyridin-2-yl-propanoyl)-4,5,6,7-tetrahydro-thieno[2,3-c]pyridin-2-yl]-3-(2-ethoxy-phenyl)-propionamide] | ≥ 40000 | ≤ 300
COc1ccc(C)cc1CCC(=O)Nc1sc2c(c1C#N)CCN(C(=O)CCc1cc(C)ccn1)C2 [Example 34, N-{3-Cyano-6-[3-(4-methyl-pyridin-2-yl)-propanoyl]-4,5,6,7-tetrahydro-thieno[2,3-c]pyridin-2-yl}-3-(2-methoxy-5-methyl-phenyl)-propionamide] | > 100000 | 300 to 2000
COC(=O)CCC(=O)N1CCc2c(sc(NC(=O)CCc3ccccc3OC)c2C#N)C1 [Example 4, 4-{3-Cyano-2-[3-(2-methoxy-phenyl)-propanoylamino]-4,7-dihydro-5H-thieno[2,3-c]pyridin-6-yl}-4-oxo-butyric acid methyl ester] | > 100000 | 300 to 2000
COc1ccccc1C(C)CC(=O)Nc1sc2c(c1C#N)CCN(C(=O)Cc1cccnc1)C2 (racemic) [Example 66, (RS)—N-[3-Cyano-6-(2-pyridin-3-yl-ethanoyl)-4,5,6,7-tetrahydro-thieno[2,3-c]pyridin-2-yl]-3-(2-methoxy-phenyl)-butyramide] | > 100000 | ≤ 300
COc1ccc(C)cc1CCC(=O)Nc1sc2c(c1C#N)CCN(C(=O)Cc1ccncc1)C2 [Example 74, N-[3-Cyano-6-(2-pyridin-4-yl-ethanoyl)-4,5,6,7-tetrahydro-thieno[2,3-c]pyridin-2-yl]-3-(2-methoxy-5-methyl-phenyl)-propionamide] | > 100000 | ≤ 300
COCCOCC(=O)N1CCc2c(sc(NC(=O)CCc3cccc(OC)c3)c2C#N)C1 [Example 30, N-{3-Cyano-6-[2-(2-methoxy-ethoxy)-ethanoyl]-4,5,6,7-tetrahydro-thieno[2,3-c]pyridin-2-yl}-3-(3-methoxy-phenyl)-propionamide] | > 100000 | 300 to 2000
COc1cccc(CCC(=O)Nc2sc3c(c2C#N)CCN(C(=O)CCc2cccnc2)C3)c1 [Example 14, N-[3-Cyano-6-(3-pyridin-3-yl-propanoyl)-4,5,6,7-tetrahydro-thieno[2,3-c]pyridin-2-yl]-3-(3-methoxy-phenyl)-propionamide] | > 100000 | 300 to 2000
CCOc1ccccc1CCC(=O)Nc1sc2c(c1C#N)CCN(C(=O)CCc1cccnc1)C2 [Example 22, N-[3-Cyano-6-(3-pyridin-3-yl-propanoyl)-4,5,6,7-tetrahydro-thieno[2,3-c]pyridin-2-yl]-3-(2-ethoxy-phenyl)-propionamide] | > 100000 | ≤ 300
COc1ccccc1CCC(=O)Nc1sc2c(c1C#N)CCN(C(=O)Cc1ccncc1)C2 [Example 3, N-[3-Cyano-6-(2-pyridin-4-yl-ethanoyl)-4,5,6,7-tetrahydro-thieno[2,3-c]pyridin-2-yl]-3-(2-methoxy-phenyl)-propionamide] | ≥ 40000 | ≤ 300
